Experimental data: PubChem BioAssay AID463206 (Broad Institute, 2010)
The source made the active and inactive calls.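 Rule for the calls: active = caspase luminescence falls with dose and the half-maximal concentration AC50 from the fitted curve is at or below a set limit; inconclusive = flat fit at 30 to 70% signal loss, or invalid fit; inactive = AC50 above the limit, or signal rises instead.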

Test system: INS-1E cytokine-induced caspase-3/7, Caspase-Glo luminescence, 48 h
Assay: suppression of cytokine-driven beta-cell apoptosis – INS-1E rat cells, luminescence, orthogonal assay for beta-cell apoptosis protection project, dose response (AID 463206)

Row | Compound | AC50
1 | CC[N+](C)(CC)CCC(c1ccccc1)C1CCCCC1 (stereo not drawn) | > 26 µM (inactive)
2 | Cc1nnc(N/N=C/c2ccccn2)[nH]c1=O | > 26 µM (inactive)
3 | CC(C)c1cccc(C(C)C)c1OC(=O)[C@H]1OC(C(C)(C)C)=C[C@@H]1c1ccccc1 | > 26 µM (inactive)
4 | COc1ccc(-n2c(-c3ccc(Cl)cc3)c[n+]3c2CCc2ccccc2-3)cc1 | > 26 µM (inactive)
5 | CC1CCC(C(C)C)C(OC(=O)C[n+]2cc(-c3ccc(Cl)cc3)n3c2CCCCC3)C1 (stereo not drawn) | > 26 µM (inactive)
6 | C/C(=N\Nc1nc(-c2ccccn2)nc2ccccc12)c1ccc(F)cc1 | > 26 µM (inactive)
7 | CCSCCc1nnc(NC(=O)Nc2cccc(C(F)(F)F)c2)s1 | > 26 µM (inactive)
8 | CC(C)(C)OC(=O)NCc1ccc(NC(=O)c2nc[nH]c2C(=O)NCCCCNC(=O)c2[nH]cnc2C(=O)Nc2ccc(CNC(=O)OC(C)(C)C)cc2)cc1 | > 26 µM (inactive)
9 | Cc1ccc(C(C)C)c(OCc2ccc(C(=O)N/N=C/c3ccc(O)cc3O)cc2)c1 | > 26 µM (inactive)
10 | COc1ccc(C)cc1NS(=O)(=O)c1ccc(NC(=O)CN(c2cc([N+](=O)[O-])ccc2C)S(C)(=O)=O)cc1 | > 26 µM (inactive)
11 | CCCC(=O)NC(c1ccc(C)cc1)c1ccc2cccnc2c1O (stereo not drawn) | > 26 µM (inactive)
12 | Cn1nc(-c2ccccn2)nc2c(=O)n(C)c(=O)nc1-2 | > 26 µM (inactive)
13 | COc1cccc(/C=N\NC(=O)c2ccc(Cn3cc(Br)c([N+](=O)[O-])n3)o2)c1O | > 26 µM (inactive)
14 | COc1cc(CSc2nnnn2-c2ccc(C)cc2)cc(OC)c1OC | > 26 µM (inactive)
15 | CCOc1cc(CNCCc2ccc(S(N)(=O)=O)cc2)ccc1OCc1ccc(Cl)cc1 | > 26 µM (inactive)
16 | CC(=O)/C=C1\N(C)c2ccc(C)cc2C1(C)C | > 26 µM (inactive)
17 | COc1ccc(-c2csc(NC(=O)c3ccccc3NS(=O)(=O)c3ccc(F)c(F)c3)n2)cc1 | > 26 µM (inactive)
18 | COc1ccc(C)cc1Nc1n[n+](-c2ccccc2)c(-c2c(OC)ccc3ccccc23)s1 | > 26 µM (inactive)
19 | CCOC(=O)C(C)/C(C)=N/NC(=O)c1cc2ccccc2cc1O (stereo not drawn) | > 26 µM (inactive)
20 | O=C(Nc1ccc(Cl)cc1)Nc1ccc(N2CCCC2)c(S(=O)(=O)Nc2ccccc2Cl)c1 | > 26 µM (inactive)
21 | O=c1cc(N2CCN(c3cccc(Cl)c3)CC2)[nH]c(=O)n1C1CCCCC1 | > 26 µM (inactive)
22 | C/C(=N\NC(=O)C(=O)Nc1cccc(Cl)c1)c1ccncc1 | > 26 µM (inactive)
23 | O=C(N/N=C/c1c(O)ccc2ccccc12)c1[nH]ncc1Br | > 26 µM (inactive)
24 | COc1ccc(CC(=O)Nc2ccncc2Cl)cc1 | > 26 µM (inactive)

Row | Compound | AC50
25 | CCCCCCCCCCOC(=O)Cn1c(COc2ccccc2OC)[n+](C)c2ccccc21 | > 26 µM (inactive)
26 | CC(=O)SC1CC(=O)N(c2c(C)cccc2C)C1=O (stereo not drawn) | > 26 µM (inactive)
27 | C=C[C@H](CC(C)C)N(Cc1ccccc1)S(=O)(=O)N(Cc1ccc(OC)cc1)[C@H](C=C)CC(C)C | > 26 µM (inactive)
28 | Oc1c(Br)cc(Br)cc1/C=N/Nc1ccc(Cl)nn1 | > 26 µM (inactive)
29 | CCN(CC)C(=O)c1ccc(S(=O)(=O)N2CCC(c3nc4ccccc4s3)CC2)cc1 | > 26 µM (inactive)
30 | CCN(CC)CCNc1ncnc2c1sc1nc(N3CCOCC3)c3c(c12)CC(C)(C)SC3 | 23.6 µM
31 | CCc1ccc(-c2nn(-c3ccccc3)cc2CSC(=N)N)cc1 | > 26 µM (inactive)
32 | C/C(=N\NC(=O)c1cc(-c2cccs2)nc2ccccc12)c1ccccn1 | > 26 µM (inactive)
33 | COc1ccc2nc3cc(Cl)ccc3c(Nc3cc(CN4CCCC4)c(O)c(CN4CCCC4)c3)c2n1 | > 26 µM (inactive)
34 | CN1/C(=C\C(=O)c2ccco2)C(C)(C)c2ccccc21 | > 26 µM (inactive)
35 | CC(C)OCCCNc1ncnc2c1[nH]c1ccccc12 | > 26 µM (inactive)
36 | CC(C)(C)c1ccc(/C=C(\c2nc3ccccc3[nH]2)S(=O)(=O)c2ccccc2)cc1 | > 26 µM (inactive)
37 | Cc1ccc2c(c1)S/C(=C/c1ccc[n+](C)c1)N2CCO | > 26 µM (inactive)
38 | Cc1nnc2ccc(Oc3ccc(-c4ccccc4)cc3)nn12 | > 26 µM (inactive)
39 | CCOC(=O)/C(=C\c1ccc(OC(F)F)cc1)C1=Nn2c(nnc2-c2ccc(Cl)cc2)SC1 | > 26 µM (inactive)
40 | CCS(=O)(=O)c1ncc(Cl)c(C(=O)Nc2ccc(S(=O)(=O)N3CCCC(C)C3)cc2)n1 (stereo not drawn) | > 26 µM (inactive)
41 | FC(F)(F)c1ccccc1NC(=S)N1CCN(Cc2ccc3c(c2)OCO3)CC1 | > 26 µM (inactive)
42 | Cc1ccccc1N=Nc1ccc(O)c2ncccc12 | > 26 µM (inactive)
43 | O=C(Cc1ccc([N+](=O)[O-])cc1)Nc1cccnc1 | > 26 µM (inactive)
44 | NC(=S)N/N=C/c1c(O)c(Br)cc2oc3c(c12)CCCC3 | > 26 µM (inactive)
45 | CCOc1ccc(-c2cc(C(=O)NCCCn3ccnc3)c3cc(Br)ccc3n2)cc1 | > 12 µM (inactive)
46 | C=C(C(=O)c1ccccc1)C(C(=C)C(=O)c1ccccc1)c1ccc(OC)cc1 | > 26 µM (inactive)
47 | COc1ccc(NS(=O)(=O)c2ccc(-c3cnc(C4CC4)o3)cc2)cc1OC | > 26 µM (inactive)
48 | CC(=O)c1c(C)n(CC(=O)NCc2ccco2)c2ccccc12 | > 26 µM (inactive)

Row | Compound | AC50
49 | OC(c1cc(-c2ccc(C(F)(F)F)cc2)nc(C(F)(F)F)c1)C1CCCCN1 (stereo not drawn) | > 26 µM (inactive)
50 | Nc1ccccc1N=Cc1c(O)n(CCC2=CCCCC2)c(=O)[nH]c1=O | > 26 µM (inactive)
51 | COc1ccc(CN(C)C(=O)c2ccc(NS(=O)(=O)c3ccc(F)cc3)cc2)c(OC)c1OC | > 26 µM (inactive)
52 | CC(C)Cn1c(SCC(=O)N2CCc3ccccc3C2)nc2cc(Cl)ccc2c1=O | > 26 µM (inactive)
53 | CCOC(=O)N1CCN(S(=O)(=O)c2ccc(C(=O)NNc3nc4ccc(Cl)cc4s3)cc2)CC1 | > 26 µM (inactive)
54 | COC(=O)C1CCN(C(=O)c2cc(-c3ccc(Cl)s3)nc3ccccc23)CC1 | > 26 µM (inactive)
55 | COc1cccc(/C=N/Nc2snc(SC)c2C#N)c1O | > 26 µM (inactive)
56 | COc1ccc(C2C(O)C(c3c[nH]c4ccccc34)=NN2C(=O)CCl)cc1 (stereo not drawn) | > 26 µM (inactive)
57 | COC(=O)C1=C(C)N(Cc2ccccc2)C(=NCc2cccc(Cl)c2)N[C@H]1c1cccc(F)c1 | > 26 µM (inactive)
58 | CCCC(=O)N(CCN(C(=O)CCC)c1ccccc1)c1ccccc1 | > 26 µM (inactive)
59 | O=C(NCCCn1ccnc1)c1ccc(-c2ccccc2)cc1 | > 26 µM (inactive)
60 | CCCCSc1ccc(NC(=O)c2cccnc2)cc1 | > 26 µM (inactive)
61 | COc1cc(SC)ccc1C(=O)Nc1nc2ccccc2[nH]1 | > 26 µM (inactive)
62 | Cc1ccc(-c2cc3cccc[n+]3cc2-c2ccc(C)cc2)cc1 | > 26 µM (inactive)
63 | CCOC(=O)c1cnc(-n2nc(C)cc2C)nc1Nc1ccc(O)cc1 | > 26 µM (inactive)
64 | CC(C)COCc1ccc(O)c2ncccc12 | > 26 µM (inactive)
65 | CNC[C@@H](CC1CCCCC1)NC[C@H](CC(C)C)NCCc1cccc(C(F)(F)F)c1 | > 26 µM (inactive)
66 | Cc1cc(C)cc(Oc2cc(NC(=O)c3cn(C)nc3C)cc([N+](=O)[O-])c2)c1 | > 26 µM (inactive)
67 | COc1ccc(Sc2nc(-c3ccccn3)ncc2OC)cc1 | > 26 µM (inactive)
68 | Clc1ccc(C(c2ccc(Cl)cc2)n2cc[n+](CC(OCc3ccc(Cl)cc3Cl)c3ccc(Cl)cc3Cl)c2)cc1 (stereo not drawn) | > 26 µM (inactive)
69 | COc1ccc(Cn2cc3c(-c4ccc(F)cc4)nnc-3c3cc(OC)c(OC)cc32)cc1 | 12.9 µM
70 | COCCC1CCCCN1C(=O)c1cc(COc2ccc(-n3cncn3)cc2)on1 (stereo not drawn) | > 26 µM (inactive)
71 | CN1C2CCC1/C(=C/c1ccccn1)C(=O)/C2=C\c1ccccn1 | > 26 µM (inactive)
72 | CC(=O)c1c(C)[nH]c(C(=O)CN2CCN(S(=O)(=O)c3ccccc3)CC2)c1C | > 26 µM (inactive)

Row | Compound | AC50
73 | C/C(=N\NC(=O)C(C)n1nc(C)c([N+](=O)[O-])c1C)c1ccccc1O (stereo not drawn) | > 26 µM (inactive)
74 | COc1cc(OC)c2cc(C(=O)N/N=C/c3cccc(OC)c3O)[nH]c2c1 | > 26 µM (inactive)
75 | CCCOc1ccc(Br)cc1CSC(=N)N | > 12 µM (inactive)
76 | CCOC(=O)CSc1nc2c(c(=O)[nH]1)C(C)(CC)Cc1ccccc1-2 (stereo not drawn) | > 26 µM (inactive)
77 | COc1ccccc1OCCCCOc1ccccc1C(C)=O | > 26 µM (inactive)
78 | COC(=O)c1ccccc1NC(=O)c1nc(S(=O)(=O)Cc2ccccc2)ncc1Cl | > 26 µM (inactive)
79 | COc1cc(/C=C/C(=O)c2ccc([N+](=O)[O-])o2)ccc1O | > 26 µM (inactive)
80 | COc1cc(/C=N/NC(=O)c2cccnc2)ccc1OC(=O)c1cc(OC)c(OC)c(OC)c1 | > 26 µM (inactive)
81 | O=[N+]([O-])c1cc(/C=N/Nc2nc3ccccc3[nH]2)c(O)cc1O | > 26 µM (inactive)
82 | CC1CC(=O)N(c2ccc(Br)cc2)C(=O)C1 | > 26 µM (inactive)
83 | O=C(/C=C/c1cccc([N+](=O)[O-])c1)c1ccc([N+](=O)[O-])o1 | > 26 µM (inactive)
84 | CC(=O)Nc1sc2c(c1-c1nc3ccccc3s1)CCN(C(C)C)C2 | 3.1 µM
85 | [O-][n+]1onc2c1CCc1c-2nn(-c2ccccc2Cl)[n+]1[O-] | 15.9 µM
86 | CCOC(=O)c1ccc(NC(=O)c2cccnc2)cc1 | > 26 µM (inactive)
87 | CC1=NN(c2nc(-c3ccc(C)cc3)cs2)C(=O)C1N=Nc1ccc(C(N)=O)cc1 (stereo not drawn) | > 26 µM (inactive)
88 | CC1Cc2ccccc2N1C(=O)CSc1nc2ccccc2o1 (stereo not drawn) | > 26 µM (inactive)
89 | FC(F)(F)c1nnc2c(Sc3ccccc3)nc3ccc(Cl)cc3n12 | > 26 µM (inactive)
90 | Cc1cc(N/N=C/c2ccc(O)cc2O)nc(-n2nc(C)cc2C)n1 | > 26 µM (inactive)
91 | O=C(N/N=C/c1ccccc1)c1c(O)c2ccccc2[nH]c1=O | > 26 µM (inactive)
92 | Cc1ccc(NC(=O)Nc2cccc([N+](=O)[O-])c2)cc1F | > 26 µM (inactive)
93 | C#CCOCCOCCOCCNc1nc(N2CCN(C(=O)CCCCCCCCCCNC(=O)[C@H]([C@@H](C)CC)n3cc(CCCCCN)nn3)CC2)nc(N2CCN(C(=O)CCCCCCCCCCNC(=O)[C@@H]([C@H](C)O)n3cc(C)nn3)CC2)n1 | > 26 µM (inactive)
